From ChEMBL document CHEMBL1158022, “Norpregnane glycosides from a Thai soft coral, Scleronephthya pallida” (J Nat Prod, 1999)
In brackets after ≈: the same amount, converted by molar mass.

Assays:
Plasmodium falciparum = assay: Antimalarial activity against multidrug-resistant Plasmodium falciparum K1 by [3H]hypoxanthine uptake; assay type: functional, organism-based
[1] = Cytotoxicity against BCA1 cells by SRB assay; assay type: functional; conditions: read-out: ED50 (the source's name)

| Compound | EC50 (Plasmodium falciparum; Plasmodium falciparum, K1, read-out: EC50) | EC50 [1] | EC50 (Plasmodium falciparum) |
| --- | --- | --- | --- |
| C=C[C@H]1CC[C@H]2[C@@H]3CCc4cc(O[C@H]5O[C@H](C)[C@H](O)[C@H](O)[C@H]5O)ccc4[C@H]3CC[C@]12C | 1.5 µg/mL (≈ 3.5 µM) | 10 µg/mL (≈ 23.3 µM) |  |
| CCN(CC)CCCC(C)Nc1ccnc2cc(Cl)ccc12.O=P(O)(O)O.O=P(O)(O)O (stereo not drawn) [CHLOROQUINE PHOSPHATE] |  |  | 1.6 ×10⁻⁷ g/ml |
